Like-named read-outs stand apart in the source and are kept apart here.
Assays:
human recombinant HDAC1 = biological target: T1, human recombinant HDAC1 (Homo sapiens, UniProt Q13547); test: HDAC1 enzyme activity inhibition (HDAC Fluorimetric Drug Discovery Kit); assay type: biochemical; conditions: read-out: HDAC1
T1 construct: purchased Enzo Life Science, Inc. BML-SE456
How it was run: (§1)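 Fluorimetric deacetylase read-out: after 30 min with Developer II following a 60 min, 30° C reaction of recombinant enzyme ([…]) with 10 μM substrate, across five-fold serial compound dilutions.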

human recombinant HDAC6 = biological target: T2, human recombinant HDAC6 (Homo sapiens, UniProt Q9UBN7); test: HDAC6 enzyme activity inhibition (HDAC Fluorimetric Drug Discovery Kit); assay type: biochemical
T2 construct: purchased Calbiochem Inc. 382180
T2 sequence (Q9UBN7 1-1215): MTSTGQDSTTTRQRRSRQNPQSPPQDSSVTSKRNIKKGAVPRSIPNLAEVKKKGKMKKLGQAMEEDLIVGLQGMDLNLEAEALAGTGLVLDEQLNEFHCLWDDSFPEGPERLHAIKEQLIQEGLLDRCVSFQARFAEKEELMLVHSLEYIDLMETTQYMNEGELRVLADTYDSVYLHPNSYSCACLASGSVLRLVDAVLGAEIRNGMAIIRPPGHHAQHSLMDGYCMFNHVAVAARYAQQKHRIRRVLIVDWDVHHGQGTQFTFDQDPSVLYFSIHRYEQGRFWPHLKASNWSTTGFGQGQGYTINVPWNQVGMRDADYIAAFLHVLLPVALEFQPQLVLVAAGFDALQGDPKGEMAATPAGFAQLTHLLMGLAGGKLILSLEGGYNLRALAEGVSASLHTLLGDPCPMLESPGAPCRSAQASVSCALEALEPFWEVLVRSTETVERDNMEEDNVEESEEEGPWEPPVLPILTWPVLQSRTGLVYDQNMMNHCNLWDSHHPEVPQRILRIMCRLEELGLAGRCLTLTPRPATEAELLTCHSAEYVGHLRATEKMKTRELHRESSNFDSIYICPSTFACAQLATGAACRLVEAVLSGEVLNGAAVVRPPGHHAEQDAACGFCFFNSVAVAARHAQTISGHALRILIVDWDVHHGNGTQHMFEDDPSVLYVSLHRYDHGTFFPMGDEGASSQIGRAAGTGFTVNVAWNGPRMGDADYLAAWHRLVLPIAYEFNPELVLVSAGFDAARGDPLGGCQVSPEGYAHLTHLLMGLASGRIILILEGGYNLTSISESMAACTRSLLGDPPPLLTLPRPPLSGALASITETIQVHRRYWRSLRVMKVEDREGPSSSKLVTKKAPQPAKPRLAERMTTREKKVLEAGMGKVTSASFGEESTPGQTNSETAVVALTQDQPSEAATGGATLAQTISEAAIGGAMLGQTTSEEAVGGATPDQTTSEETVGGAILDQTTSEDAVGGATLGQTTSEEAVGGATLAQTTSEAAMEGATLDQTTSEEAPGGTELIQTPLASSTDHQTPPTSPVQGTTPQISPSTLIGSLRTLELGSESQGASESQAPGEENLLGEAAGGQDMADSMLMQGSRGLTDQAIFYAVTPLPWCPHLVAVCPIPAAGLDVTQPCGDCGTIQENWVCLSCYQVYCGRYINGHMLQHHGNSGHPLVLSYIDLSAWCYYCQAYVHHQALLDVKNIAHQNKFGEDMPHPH
How it was run: as §1

[1] = human recombinant HDAC1, Fluor de Lys substrate, 30° C. 60 minutes
[2] = human recombinant HDAC6, same protocol as HDAC1
[3] = human recombinant HDAC1, IC50 calculated with GraphPad Prism
[4] = human recombinant HDAC6, IC50 calculated with GraphPad Prism

T1 sequence (Q13547 whole entry): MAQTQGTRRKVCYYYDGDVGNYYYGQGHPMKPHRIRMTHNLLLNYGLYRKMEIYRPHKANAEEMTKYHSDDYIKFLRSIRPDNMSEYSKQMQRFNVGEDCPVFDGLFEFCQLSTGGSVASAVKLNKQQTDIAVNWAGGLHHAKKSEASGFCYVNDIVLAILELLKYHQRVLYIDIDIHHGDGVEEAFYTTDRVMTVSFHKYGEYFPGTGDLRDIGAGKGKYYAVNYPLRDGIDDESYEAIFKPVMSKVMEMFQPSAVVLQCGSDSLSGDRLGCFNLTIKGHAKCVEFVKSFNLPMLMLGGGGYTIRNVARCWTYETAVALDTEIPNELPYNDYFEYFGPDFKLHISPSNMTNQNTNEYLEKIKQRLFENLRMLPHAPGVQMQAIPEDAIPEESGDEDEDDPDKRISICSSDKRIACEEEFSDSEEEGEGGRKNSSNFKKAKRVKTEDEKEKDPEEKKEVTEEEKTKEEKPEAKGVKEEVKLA

IC50 (human recombinant HDAC1; [1]) | HDAC6 selectivity (fold) (human recombinant HDAC6; HDAC6 over HDAC1) | IC50 (human recombinant HDAC6; [2]) | IC50 (human recombinant HDAC1; [3]) | HDAC6 selectivity (fold) (human recombinant HDAC6; HDAC1 IC50 / HDAC6 IC50) | IC50 (human recombinant HDAC6; [4]) | Structure (SMILES)
> 50000 nM | 769 fold | 65 nM |  |  |  | Fc1cc(-c2nnc(C(F)F)o2)ccc1Cn1cc(-c2ccc(CN3CC[C@H](F)C3)nc2)nn1 [Compound 17773, (S)-2-(difluoromethyl)-5-(3-fluoro-4-((4-(6-((3-fluoropyrrolidin-1-yl)methyl)pyridin-3-yl)-1H-1,2,3-triazol-1-yl)methyl)phenyl)-1,3,4-oxadiazole]
> 50000 nM | 1336 fold | 37.4 nM |  |  |  | FC(F)c1nnc(-c2ccc(Cn3cc(-c4ccc5c(c4)CN(C4CCC4)C5)nn3)nc2)o1 [Compound 4542, 2-(6-((4-(2-cyclobutylisoindolin-5-yl)-1H-1,2,3-triazol-1-yl)methyl)pyridin-3-yl)-5-(difluoromethyl)-1,3,4-oxadiazole]
> 50000 nM | 225 fold | 222 nM |  |  |  | Fc1cc(-c2nnc(C(F)F)o2)ccc1Cn1cc(-c2ccccc2CN2CC3(COC3)C2)nn1 [Compound 4586, 6-(2-(1-(4-(5-(difluoromethyl)-1,3,4-oxadiazol-2-yl)-2-fluorobenzyl)-1H-1,2,3-triazol-4-yl)benzyl)-2-oxa-6-azaspiro[3.3]heptane]
> 50000 nM | 986 fold | 50.7 nM |  |  |  | CC1CCN(Cc2ccc(-c3cn(Cc4ncc(-c5nnc(C(F)F)o5)cc4F)nn3)s2)CC1 [Compound 18310, 2-(difluoromethyl)-5-(5-fluoro-6-((4-(5-((4-methylpiperidin-1-yl)methyl)thiophen-2-yl)-1H-1,2,3-triazol-1-yl)methyl)pyridin-3-yl)-1,3,4-oxadiazole]

Further lines, the compound ahead of its results:

Structure (SMILES) | IC50 (human recombinant HDAC1; [1]) | HDAC6 selectivity (fold) (human recombinant HDAC6; HDAC6 over HDAC1) | IC50 (human recombinant HDAC6; [2]) | IC50 (human recombinant HDAC1; [3]) | HDAC6 selectivity (fold) (human recombinant HDAC6; HDAC1 IC50 / HDAC6 IC50) | IC50 (human recombinant HDAC6; [4])
FC(F)c1nnc(-c2ccc(Cn3cnc(Br)c3)nc2)o1 [Compound 3949, 2-(6-((4-bromo-1H-imidazol-1-yl)methyl)pyridin-3-yl)-5-(difluoromethyl)-1,3,4-oxadiazole] |  |  |  | > 50000 nM | 445 fold | 112 nM
FC(F)c1nnc(-c2ccc(Cn3cc(-c4cccc(C5CN(C6COC6)C5)c4)nn3)cc2)o1 [Compound 4511, 2-(difluoromethyl)-5-(4-((4-(3-(1-(oxetan-3-yl)azetidin-3-yl)phenyl)-1H-1,2,3-triazol-1-yl)methyl)phenyl)-1,3,4-oxadiazole] | > 50000 nM | 325 fold | 64.2 nM |  |  | 
Fc1ccc(-c2cn(Cc3ccc(-c4nnc(C(F)F)o4)cc3)nn2)cc1N1CCN(C2CCC2)CC1 [Compound 4422, 2-(4-((4-(3-(4-cyclobutylpiperazin-1-yl)-4-fluorophenyl)-1H-1,2,3-triazol-1-yl)methyl)phenyl)-5-(difluoromethyl)-1,3,4-oxadiazol] |  |  |  | > 50000 nM | 127 fold | 392 nM
CC(C)N1CC(N2CCc3cc(-c4cn(Cc5ccc(-c6nnc(C(F)F)o6)cc5F)nn4)ccc3C2)C1 [Compound 4393, 2-(difluoromethyl)-5-(3-fluoro-4-((4-(2-(1-isopropylazetidin-3-yl)-1,2,3,4-tetrahydroisoquinolin-6-yl)-1H-1,2,3-triazol-1-yl)methyl)phenyl)-1,3,4-oxadiazole] |  |  |  | > 50000 nM | 1381 fold | 36.2 nM
CC(C)(C)C(=O)Nc1cccc(-c2cn(Cc3ccc(-c4nnc(C(F)F)o4)cc3)nn2)c1 [Compound 4327, N-(3-(1-(4-(5-(difluoromethyl)-1,3,4-oxadiazol-2-yl)benzyl)-1H-1,2,3-triazol-4-yl)phenyl)pivalamide] |  |  |  | > 50000 nM | 1396 fold | 35.8 nM
Fc1cc(-c2nnc(C(F)F)o2)ccc1Cn1cc(-c2ccnc3[nH]ccc23)nn1 [Compound 4526, 2-(4-((4-(1H-pyrrolo[2,3-b]pyridin-4-yl)-1H-1,2,3-triazol-1-yl)methyl)-3-fluorophenyl)-5-(difluoromethyl)-1,3,4-oxadiazole] | > 50000 nM | 3846 fold | 13 nM |  |  | 
